Measurements as given in patent US5244905A, “N-substituted cycloalkyl and polycycloalkyl polyhydro-β-carboline-phenylalanine- and phenethylamine derivatives” (Warner-Lambert Company, priority 1991, dated 1993).

Assays:
CCK-B receptor = target: T1, CCK-B receptor (Mus musculus, UniProt P56481); test: Binding to the CCK-B receptor (Table III); design: species or system mouse (male CFLP)
T1 construct: from tissue
T1 sequence (P56481 1-453): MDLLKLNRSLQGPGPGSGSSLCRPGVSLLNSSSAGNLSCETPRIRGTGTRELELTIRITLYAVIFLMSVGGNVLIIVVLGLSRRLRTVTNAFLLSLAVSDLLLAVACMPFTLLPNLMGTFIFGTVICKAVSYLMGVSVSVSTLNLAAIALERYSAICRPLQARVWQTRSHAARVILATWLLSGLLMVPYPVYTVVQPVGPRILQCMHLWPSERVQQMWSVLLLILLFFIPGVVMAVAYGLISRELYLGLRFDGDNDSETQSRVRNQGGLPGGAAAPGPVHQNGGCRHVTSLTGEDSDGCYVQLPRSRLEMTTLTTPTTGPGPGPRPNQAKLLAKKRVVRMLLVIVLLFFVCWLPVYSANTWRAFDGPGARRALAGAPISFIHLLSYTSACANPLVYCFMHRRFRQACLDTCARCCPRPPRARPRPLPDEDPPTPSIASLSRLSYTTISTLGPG
Protocol: (§1) The biological activity of compounds of the present invention was evaluated employing an initial screening test which rapidly and accurately measured the binding of the tested compound to known CCK receptor sites. […] (See Hays et al, Neuropeptides 1:53-62, 1980; and Satuer et al, Science, 208:1155-1156, 1980.
(§2) In this screening test, the cerebral cortices taken from male CFLP mice weighing between 30-40 g were dissected on ice, weighed, and homogenized in 10 volumes of 50 mM Tris-HCl buffer (pH 7.4 at 0°-4° C.). The resulting suspension was centrifuged, the supernate was discarded, and the pellet was washed by resuspension in Tris-HCl buffer followed by recentrifugation. The final pellet was resuspended in 20 volumes of […] Hepes buffer (pH 7.2 at 23° C.) containing 130 mM NaCl, […] KCl, […] MgCl2, […] EDTA, 5 mg/mL bovine albumin, and bacitracin (0.25 mg/mL).
(§3) In saturation studies, cerebral cortical membranes were incubated at 23° C. for 120 minutes in a final volume of 500 μliter of Hepes incubation buffer (pH 7.2) together with 0.2-20 nM tritiated-pentagastrin (Amersham International, England).
(§4) In the displacement experiments, membranes were incubated with a single concentration (2 nM) of ligand, together with increasing concentrations ([…]) of competitive test compound. In each case, the nonspecific binding was defined as that persisting in the presence of the unlabeled octapeptide CCK26-33 (10^-6 M).
(§5) Following incubation, radioactivity bound to membranes was separated from that free in solution by rapid filtration through Whatman GF/B filters and washed three times with 4 mL of ice cold Tris-HCl buffer. Filters from samples incubated with tritiated-pentagastrin were placed in polyethylene vials with 4 mL of scintillation cocktail, and the radioactivity was estimated by liquid scintillation spectrometry (efficiency 47% to 52%).
(§6) The specific binding to CCK receptor sites was defined as the total bound tritiated-pentagastrin minus the amount of tritiated-pentagastrin bound in the presence of 10^-6 octapeptide, CCK26-33.
(§7) Saturation curves for specific tritiated-pentagastrin binding to mouse cortical membranes were analyzed by the methods of Scatchard (Ann. New York Acad. Sci. 51:660 672, 1949, and Hill (J. Physiol. 40:IV-VIII, 1910, to provide estimates for the maximum number of binding sites (Bmax) and the equilibrium dissociation constant ([…]).
(§8) In displacement experiments, inhibition curves were analyzed by either logit-log plots or the iterative curve fitting computer program ALLFIT (DeLean, Munson and Redbard, 1978) to provide estimates of the IC50 and nH (apparent Hill coefficient) values). (IC50 values were defined as the concentration of test compound required to produce 50% inhibition of specific binding.)
(§9) The inhibition constant (Ki) of the test compound was then calculated according to the Cheng-Prusoff equation: [formula] where [L] is the concentration of radiolabel and Ka is the equilibrium dissociation constant.

Central CCK Receptors = target: T2, Central CCK Receptors (Mus musculus, UniProt P56481); test: Binding to central CCK receptors ([3H]-pentagastrin displacement, mouse cerebral cortical membranes); design: species or system mouse (male CFLP); settings: tritiated pentagastrin 2 nM, number of assays (n) = 2
T2 construct: from tissue; host or cells: cerebral cortex of male CFLP mice (washed membranes)
T2 sequence (P56481 1-453): T1 sequence (P56481 1-453)
Protocol: as §1, §2, §3, §4, §5, §6, §7, §8, §9
The Ki values for several representative compounds of the present invention are present in Table II.

[1] = tested on: aspirin-induced gastric damage; test: Aspirin-induced gastric damage; assay type: in vivo, rat; settings: 15 mg/kg PO, p <0.001 compared with controls
Protocol: Aspirin-induced gastric damage is assessed in groups of 10 rats each. All animals are fasted for 24 hours before and throughout the experiment. Drug or vehicle is given 10 minutes before an oral dose of 1 mL of a 45-mg/mL suspension of aspirin in 0.5% carboxymethylcellulose (CMC). The animals are sacrificed 5 hours after aspirin administration and the stomachs removed and opened for examination. |Gastric damage is scored as follows: |1 Small hemorrhage |2 Large hemorrhage |3 Small ulcer |4 Large ulcer |5 Perforated ulcer

| Ki (CCK-B receptor) | Ki (Central CCK Receptors) | Ki CCK-B (CCK-B receptor) | Compound | inhibition of ulcer formation ([1]; 10 minutes before aspirin) | ulcer score ([1]; ±SD, saline control 12.1±6.85) |
| --- | --- | --- | --- | --- | --- |
| 0.73 µM | 0.73 µM | – | C[C@]1(C(=O)N[C@H](CO)Cc2ccccc2)Cc2c([nH]c3ccccc23)CN1C(=O)OC1C2CC3CC(C2)CC1C3 (stereo partly drawn) [Example 5] | – | – |
| 0.305 µM | 0.305 µM | – | CC1(C(=O)N[C@H](CNC(=O)CCC(=O)O)Cc2ccccc2)Cc2c([nH]c3ccccc23)CN1C(=O)OC1C2CC3CC(C2)CC1C3 (mixture of isomers) [Example 16, 3-[[1-(3-Carboxy-1-oxopropyl)amino]methyl]-1-phenethyl]amino]carbonyl]-1,3,4,9-tetrahydro-3-methyl2H-pyrido[3,4-b]indole-2-carboxylic acid, [tricyclo-[3.3.1.1^3,7]dec-2 yl ester (mixture of diastereomers)] | – | – |
| – | – | iA | C[C@@]1(C(=O)NCCc2ccccc2)Cc2c([nH]c3ccccc23)CN1C(=O)OC1C2CC3CC(C2)CC1C3 (stereo partly drawn) [Example 3] | – | – |
| 0.71 µM | 0.71 µM | – | CC1(C(=O)NCC(NC(=O)/C=C\C(=O)O)c2ccccc2)Cc2c([nH]c3ccccc23)CN1C(=O)OC1C2CC3CC(C2)CC1C3 (mixture of isomers) [Example 15, 3-[[[2-[(3-Carboxy-1-oxo-2-propenyl)amino]-b 2-phenethyl]amino]carbonyl]1,3,4,9-tetrahydro-3-methyl-2H-pyrido[3,4-b]indole-2-carboxylic acid, [tricyclo-[3.3.1.1^3.7]dec-2-yl ester (mixture of diastereomers)] | – | – |
| 1 µM | 1 µM | – | CC1(C(=O)NCC(NC(=O)CC(=O)O)c2ccccc2)Cc2c([nH]c3ccccc23)CN1C(=O)OC1C2CC3CC(C2)CC1C3 (mixture of isomers) [Example 14, 3-[[[2-[(3-Carboxyacetyl)amino]-2-phenethyl]-amino]-carbonyl]-1,3,4,9-tetrahydro-3-methyl-2H-pyrido[3,4-b]indole-2-carboxylic acid, [tricyclo-[3.3.1.1^3,7]dec-2-yl ester (mixture of diastereomers)] | – | – |
| 6 µM | 6 µM | – | CC(C)(C)OC(=O)N1Cc2[nH]c3ccccc3c2CC1C(=O)NC(Cc1ccccc1)C(=O)O (stereo not drawn) [Example 18, 3-[[1(I-Carboxy-2-phenethyl)amino]carbonyl]-1,3,4,9-tetrahydro-2H-pyrido[3,4-b]indole-2-carboxylic acid, 1,1-dimethylethyl ester] | – | – |
| 0.86 µM | 0.86 µM | – | CC1(C(=O)N[C@@H](CO)[C@@H](O)c2ccccc2)Cc2c([nH]c3ccccc23)CN1C(=O)OC1C2CC3CC(C2)CC1C3 (stereo partly drawn) [Example 7, 1,3,4,9-Tetrahydro-3-[[[1-(hydroxymethyl)-2-hydroxy-2-phenylethyl]amino]carbonyl]-3-methyl-2H-pyrido[3,4-b]-indole-2-carboxylic acid,tricyclo[3.3.1.1^3,7]dec-2-yl ester] | – | – |
| 3 µM | 3 µM | – | CC1(C(=O)NCC(N)c2ccccc2)Cc2c([nH]c3ccccc23)CN1C(=O)OC1C2CC3CC(C2)CC1C3 (mixture of isomers) [Example 8, 3-[[(2-Amino-2-phenylethyl)amino]carbonyl]-1,3,4,9-tetrahydro-3-methyl]-2H-pyrido[3,4-b]indole-2-carboxylic acid, tricyclo[3.3.1.1^3,7]dec-2-yl ester, (mixtures of diastereomers)] | – | – |
| 0.15 µM | 0.15 µM | – | CC1(C(=O)NCCc2ccccc2)Cc2c([nH]c3ccccc23)CN1C(=O)OC1C2CC3CC(C2)CC1C3 (racemic) [Example 1, (±)1,3,4,9-Tetrahydro-3-methyl-3-[[2-phenylethyl)amino]carbonyl]-2H-pyrido[3,4-b]indole-2-carboxylic acid,tricyclo[3.3.1.1^3,7]dec-2-yl ester] | – | – |
| 0.5 µM | 0.5 µM | – | CC1(C(=O)NCC(NC(=O)CCC(=O)O)c2ccccc2)Cc2c([nH]c3ccccc23)CN1C(=O)OC1C2CC3CC(C2)CC1C3 (stereo not drawn) [Example 9, 3-[[[2-(3-Carboxy-1-oxopropyl)-amino]-2-phenylethyl]amino]carbonyl]-1,3,4,9-tetrahydro-3-methyl-2H-pyrido[3,4-b]indole-2-carboxylic acid, tricyclo[3.3.1.1^3,7]dec-2-yl ester, [R-(R*,R*)] and [R-(R*,S*)]-] | – | – |
| 1 µM | 1 µM | – | CC1(C(=O)NCC(OC(=O)CCC(=O)O)c2ccccc2)Cc2c([nH]c3ccccc23)CN1C(=O)OC1C2CC3CC(C2)CC1C3 (stereo not drawn) [Example 13] | – | – |

Continued, molecule first:

| Compound | Ki (CCK-B receptor) | Ki (Central CCK Receptors) | Ki CCK-B (CCK-B receptor) | inhibition of ulcer formation ([1]; 10 minutes before aspirin) | ulcer score ([1]; ±SD, saline control 12.1±6.85) |
| --- | --- | --- | --- | --- | --- |
| C[C@]1(C(=O)NCCc2ccccc2)Cc2c([nH]c3ccccc23)CN1C(=O)OC1C2CC3CC(C2)CC1C3 (stereo partly drawn) [Example 2] | 0.6 µM | 0.6 µM | – | – | – |
| O=C(NCCc1ccccc1)C1Cc2c([nH]c3ccccc23)CN1C(=O)OC1C2CC3CC(C2)CC1C3 (racemic) [Example 17] | 0.99 µM | 0.99 µM | – | – | – |
| CC1(C(=O)NCCc2ccccc2)Cc2c([nH]c3ccccc23)CN1S(=O)(=O)NC1C2CC3CC(C2)CC1C3 (racemic) [Example 19, (+/-)-1,3,4,9-Tetrahydro-3-methyl-N-(2-phenylethyl)-2-(tricyclo[(3.3.1.1^3,7]dec-2-ylamino]sulfonyl]1H-pyrido-[3,4-b]indole-3-carboxamide] | – | – | iA | – | – |
| CC1(C(=O)NCC(O)c2ccccc2)Cc2c([nH]c3ccccc23)CN1C(=O)OC1C2CC3CC(C2)CC1C3 (stereo not drawn) [Example 12] | 0.71 µM | 0.71 µM | – | – | – |
| CNC(=C[N+](=O)[O-])NCCSCc1ccc(CN(C)C)o1 [ranitidine] | – | – | – | 74% | 3.2±2.35 |
| C[C@@]1(C(=O)N[C@H](CO)Cc2ccccc2)Cc2c([nH]c3ccccc23)CN1C(=O)OC1C2CC3CC(C2)CC1C3 (stereo partly drawn) [Example 6, (S)-1,3,4,9-Tetrahydro-3-[[[1-(hydroxymethyl)-2-phenylethyl]amino]carbonyl]-3-methyl-2H-pyrido[3,4-b]indole-2-carboxylic acid,tricyclo[3.3.1.1^3,7]dec-2-yl ester ester] | 1.5 µM | 1.5 µM | – | – | – |
| CC1(C(=O)N[C@H](CO)Cc2ccccc2)Cc2c([nH]c3ccccc23)CN1C(=O)OC1C2CC3CC(C2)CC1C3 (mixture of isomers) [Example 4, 1,3,4,9-Tetrahydro-3-[[[1-(hydroxymethyl)-2-phenylethyl]amino]carbonyl]-3-methyl-2H-pyrido[3,4-b]indole-2-carboxylic acid,tricyclo[3.3.1.1^3,7]dec-2-yl ester (mixture of diastereomers)] | 0.5 µM | 0.5 µM | – | – | – |
| CC1(C(=O)NCC(NC(=O)CCC(=O)OCc2ccccc2)c2ccccc2)Cc2c([nH]c3ccccc23)CN1C(=O)OC1C2CC3CC(C2)CC1C3 (mixture of isomers) [Example 11, 3-[3-[3-[2-[2-[1,4-Dioxo-4-(phenylmethoxy)butyl]amino]-2-phenylethyl]amino]carbonyl]-1,3,4,9-tetrahydro-3-methyl]-2H-pyrido[3,4-b]indole-2-carboxylic acid, tricyclo[3.3.1.1^3.7]dec-2-yl ester (mixture of diastereomers)] | 3 µM | 3 µM | – | – | – |
